Assay results: paper PMC4819940 (Cancer Chemotherapy and Pharmacology, 2016)
Like-named read-outs stand apart in the source and are kept apart here.

Assay: Plasma pharmacokinetics of AZD5363 after a single dose and multiple doses
Assay type: in vivo, human
Conditions: for AUC / Tmax / Cmax / Vd/F: oral; for AUC / Cmax / Vd/F / C ss,max: geometric mean (CV%); for Tmax / t ss,max / t half: median (range); for Vd/F: read-out: V ss/F
Excerpt: […] area under the plasma concentration–time curve (AUC), maximum plasma (peak) drug concentration (Cmax), time to reach Cmax (tmax), apparent plasma clearance (CL/F), and oral volume of distribution at steady state (Vss/F).

[1] = human, plasma, single dose, 80 mg bid continuous cohort, n=3
[2] = human, plasma, single dose, 240 mg bid continuous cohort, n=7
[3] = human, plasma, single dose, 320 mg bid continuous cohort, n=6
[4] = human, plasma, single dose, 360 mg bid intermittent 4/3 cohort, n=8
[5] = human, plasma, single dose, 400 mg bid continuous cohort, n=5
[6] = human, plasma, single dose, 480 mg bid intermittent 4/3 cohort, n=6
[7] = human, plasma, single dose, 640 mg bid intermittent 2/5 cohort, n=6
[8] = human, plasma, single dose, Total, n=41
[9] = multiple doses, 80 mg bid continuous, n=3
[10] = multiple doses, 240 mg bid continuous, n=7
[11] = multiple doses, 320 mg bid continuous, n=4
[12] = multiple doses, 360 mg bid intermittent 4/3, n=7
[13] = multiple doses, 400 mg bid continuous, n=4
[14] = multiple doses, 480 mg bid intermittent 4/3, n=6
[15] = multiple doses, 640 mg bid intermittent 2/5, n=6

For `NC1(C(=O)N[C@@H](CCO)c2ccc(Cl)cc2)CCN(c2ncnc3[nH]ccc23)CC1` [AZD5363], which AUC (human, plasma, 80 mg, multiple doses, 80 mg bid continuous, n=3, read-out: AUCss) is on record?
Its AUC is 1520 ng·h/mL.

And the AUC (human, plasma, 80 mg, single dose, 80 mg bid continuous cohort, n=3, read-out: AUC)?
The AUC was 1260 ng·h/mL.

What about the AUC (human, plasma, 240 mg, multiple doses, 240 mg bid continuous, n=7, read-out: AUCss) of the same compound?
The AUC was 4840 ng·h/mL.

And the AUC (human, plasma, 240 mg, single dose, 240 mg bid continuous cohort, n=7, read-out: AUC)?
The AUC was 3290 ng·h/mL.

And the AUC (human, plasma, 320 mg, multiple doses, 320 mg bid continuous, n=4, read-out: AUCss)?
The AUC was 5770 ng·h/mL.

And the AUC (human, plasma, 320 mg, single dose, 320 mg bid continuous cohort, n=6, read-out: AUC)?
The AUC was 7110 ng·h/mL.

And the AUC (human, plasma, 360 mg, multiple doses, 360 mg bid intermittent 4/3, n=7, read-out: AUCss)?
Its AUC is 5870 ng·h/mL.

And the AUC (human, plasma, 360 mg, single dose, 360 mg bid intermittent 4/3 cohort, n=8, read-out: AUC)?
Its AUC is 4770 ng·h/mL.

And the AUC (human, plasma, 400 mg, multiple doses, 400 mg bid continuous, n=4, read-out: AUCss)?
The AUC was 9670 ng·h/mL.

And the AUC (human, plasma, 400 mg, single dose, 400 mg bid continuous cohort, n=5, read-out: AUC)?
The AUC was 4670 ng·h/mL.

What about the AUC (human, plasma, 480 mg, multiple doses, 480 mg bid intermittent 4/3, n=6, read-out: AUCss) of the same compound?
Its AUC is 10900 ng·h/mL.

What about the AUC (human, plasma, 480 mg, single dose, 480 mg bid intermittent 4/3 cohort, n=6, read-out: AUC) of the same compound?
Its AUC is 7210 ng·h/mL.

What about the AUC (human, plasma, 640 mg, multiple doses, 640 mg bid intermittent 2/5, n=6, read-out: AUCss) of the same compound?
Its AUC is 14200 ng·h/mL.

What about the AUC (human, plasma, 640 mg, single dose, 640 mg bid intermittent 2/5 cohort, n=6, read-out: AUC) of the same compound?
Its AUC is 11400 ng·h/mL.

And the AUC (human, plasma, multiple doses, Total, n=37, read-out: AUCss)?
The AUC was 6820 ng·h/mL.

And the Tmax (human, plasma, single dose, all cohorts, read-out: tmax)?
Its Tmax is 1.98 h.

What about the Cmax [1] of the same compound?
Its Cmax is 217 ng/mL.

What about the Vd/F [1] of the same compound?
Its Vd/F is 715 L.

What about the Tmax (human, plasma, single dose, 80 mg bid continuous cohort, n=3, read-out: t max) of the same compound?
Its Tmax is 2 h.

And the Cmax [2]?
Its Cmax is 628 ng/mL.

And the Vd/F [2]?
The Vd/F was 682 L.

And the Tmax (human, plasma, single dose, 240 mg bid continuous cohort, n=7, read-out: t max)?
Its Tmax is 1.9 h.

What about the Cmax [3] of the same compound?
Its Cmax is 1580 ng/mL.

What about the Vd/F [3] of the same compound?
Its Vd/F is 370 L.

What about the Tmax (human, plasma, single dose, 320 mg bid continuous cohort, n=6, read-out: t max) of the same compound?
The Tmax was 1.98 h.

And the Cmax [4]?
Its Cmax is 1010 ng/mL.

What about the Vd/F [4] of the same compound?
Its Vd/F is 681 L.

And the Tmax (human, plasma, single dose, 360 mg bid intermittent 4/3 cohort, n=8, read-out: t max)?
The Tmax was 1.99 h.

And the Cmax [5]?
The Cmax was 1060 ng/mL.

And the Vd/F [5]?
The Vd/F was 777 L.

What about the Tmax (human, plasma, single dose, 400 mg bid continuous cohort, n=5, read-out: t max) of the same compound?
Its Tmax is 1.97 h.

And the Cmax [6]?
The Cmax was 1910 ng/mL.

What about the Vd/F [6] of the same compound?
Its Vd/F is 502 L.

And the Tmax (human, plasma, single dose, 480 mg bid intermittent 4/3 cohort, n=6, read-out: t max)?
Its Tmax is 1.02 h.

And the Cmax [7]?
Its Cmax is 2100 ng/mL.

What about the Vd/F [7] of the same compound?
The Vd/F was 587 L.

What about the Tmax (human, plasma, single dose, 640 mg bid intermittent 2/5 cohort, n=6, read-out: t max) of the same compound?
Its Tmax is 2.02 h.

What about the Cmax [8] of the same compound?
Its Cmax is 1090 ng/mL.

And the AUC (human, plasma, single dose, Total, n=41, read-out: AUC)?
Its AUC is 5180 ng·h/mL.

And the Vd/F [8]?
Its Vd/F is 595 L.

What about the half-life (human, plasma, single oral doses) of the same compound?
The half-life was roughly 10 h.

What about the “C ss,max” value [9] of the same compound?
Its value is 318.3 (128.4) ng/mL.

What about the “t ss,max” value [9] of the same compound?
The value was 1 (0.98‒1.97) hours.

And the “C ss,max” value [10]?
The value was 874.4 (89.7) ng/mL.

And the “t ss,max” value [10]?
Its value is 1.98 (0.97‒3.9) hours.

What about the “C ss,max” value [11] of the same compound?
The value was 1222 (53.7) ng/mL.

And the “t ss,max” value [11]?
Its value is 1.465 (0.92‒2.12) hours.

What about the “C ss,max” value [12] of the same compound?
The value was 1366 (64.9) ng/mL.

What about the “t ss,max” value [12] of the same compound?
The value was 0.98 (0.5‒2) hours.

And the “C ss,max” value [13]?
The value was 2094 (56.6) ng/mL.

What about the “t ss,max” value [13] of the same compound?
The value was 2 (0.93‒2) hours.

And the “C ss,max” value [14]?
Its value is 2670 (36.7) ng/mL.

What about the “t ss,max” value [14] of the same compound?
The value was 1.99 (1‒2.05) hours.

What about the “C ss,max” value [15] of the same compound?
The value was 2618 (20.0) ng/mL.

What about the “t ss,max” value [15] of the same compound?
Its value is 2.01 (2‒3.97) hours.

What about the “C ss,max” value (multiple doses, Total, n=37) of the same compound?
The value was 1430 (96.6) ng/mL.

What about the “t ss,max” value (multiple doses, Total, n=37) of the same compound?
Its value is 1.98 (0.5‒3.97) hours.

What about the “t ss,max” value (multiple dosing, all cohorts) of the same compound?
The value was 1.98 (0.50–3.97) hours.

What about the “dose proportionality of exposure” value (single and multiple doses, 80- to 640-mg doses) of the same compound?
The value was “generally dose proportional”.

What about the t half (single dose, 80 mg bid continuous cohort, n=3) of the same compound?
The t half was 11.8 (8.5‒12.2) hours.

What about the t half (single dose, 240 mg bid continuous cohort, n=7) of the same compound?
The t half was 10.2 (8.2‒10.9) hours.

What about the t half (single dose, 320 mg bid continuous cohort, n=6) of the same compound?
The t half was 9.7 (7.3‒10.6) hours.
